Source: patent US9610332B2, “Compositions and methods for modulating BRD4 bioactivity” (priority 2012, dated 2017)

Experiments:
U20S cells [1] = assay: H2AX phosphorylation / γH2AX foci after IR with Brd4 bromodomain inhibitor; format: cell-based, human
Procedure: For small molecule testing, cells were plated at 500 cells/well in 384-well plates. The day after plating, small molecules at different concentrations in 100 nL DMSO were pin transferred to cells with a CyBio robot, and cells were propagated for 16 hours.
All plates were treated with 10 Gy of 667 keV X-rays from a 137Cs source in a Gammacell irradiator (Atomic Energy of Canada, Ltd). A 0 hour control plate was not irradiated. The plates were returned to the incubator and fixed with 4.4% w/v paraformaldehyde in phosphate-buffered saline (PBS) at 1, 6, and 24 hours post irradiation. Plates were stored in PBS at 4° C. prior to staining. Fixed plates were washed 3 times with PBS and blocked with 24 IJL of GSDB (0.15% goat serum, 8.33% goat serum, 120 mM sodium phosphate, 225 mM NaCl) for 30 minutes. […]
U20S cells were plated on #1 glass coverslips (VWR) and were cultured in DMEM+Pen/Strep+10% v/v FBS (complete media) at 37° C. in a 5% CO2 atmosphere, then exposed to 10 Gy Ionizing radiation from a 137CS source in a Gammacell irradiator (Atomic Energy of Canada, Ltd). fixed in methanol, and processed for immuofluorescence using the antibodies indicated above. […] Quantitative image analysis was accomplished using CellProfiler (www.CellProfiler.org) or ImageJ software (http://rsb.info.nih.gov/nihimageJ).

[2] = test system: U20S cells overexpressing Brd4 isoform B; assay: γH2AX foci / DDR signaling suppression in cells overexpressing Brd4 isoform B; format: cell-based, human; settings: for sensitivity of suppression of DDR signaling by Brd4 isoform B overexpression to transcription or translation inhibition: a-amanitin 1-16 μM, cycloheximide 35-560 μM
Procedure: U20S cells were plated on #1 glass coverslips (VWR) and were cultured in DMEM+Pen/Strep+10% v/v FBS (complete media) at 37° C. in a 5% CO2 atmosphere, then exposed to 10 Gy Ionizing radiation from a 137CS source in a Gammacell irradiator (Atomic Energy of Canada, Ltd). fixed in methanol, and processed for immuofluorescence using the antibodies indicated above. Images were captured on a Zeiss Axiophot II microscope with a Hamamatsu CCD camera and processed with OpenLab/Volocity software. Quantitative image analysis was accomplished using CellProfiler (www.CellProfiler.org) or ImageJ software (http://rsb.info.nih.gov/nihimageJ).
(§1) UCN01 was from Sigma (cat. #U6508) and was used at concentrations of 0.003-10 μM.
3×10^6 U20S cells were plated and transiently transfected with pEGFP-C 1, isoform C, isoform B, isoform B, BD1 mutant, Brd4-NUT and truncated Brd4-NUT using Fugene 6 (Roche). These cells were exposed to 10 Gy Ionizing radiation and harvested 24 hrs later, fixed with 4% formaldehyde, extracted with 100% ethanol, processed for flow cytometry using the antibodies listed above. Data were analyzed using FlowJo (www.flowjo.com) software.
U20S cell lines stably expressing this shRNA or control hairpins (ineffective hairpins directed against human sequences of BAD and PUMA) were created using puromycin selection at 2 ug/mL. STEALTH siRNA against BRD4 and control were purchased from Invitrogen, and used according to manufacturer's instructions.

CHEK2 mRNA = CHEK2 mRNA expression by RT-PCR; format: cell-based, human; settings: short term treatment; FIG. 6B, 6C
Procedure: as §1

Brd4 bromodomain 1 = Brd4 bromodomain 1 (Homo sapiens, UniProt O60885); settings: as reported previously (Nature 468:1067 (2010)); cited from earlier work
U20S cells [3] = assay: Image-based screen: G2/M arrest and mitotic entry (DNA content, pHH3) after irradiation; format: cell-based, human; settings: 10 Gy IR, FIGS. 1B, 1D, 1F, 1G
Procedure: For both shRNA and small molecule screens, human U20S osteosarcoma cells (ATCC HTB-96) were grown in DMEM+Pen/Strep+10% v/v FBS (complete media) at 37° C. in a 5% CO2 atmosphere. All screens were carried out at passage 10-15. Cells were tested for mycoplasma by PCR prior to seeding and infection. U20S cells were seeded with a MicroFill (Biotek) in 384-well black, clear bottom plates (Greiner) at a density of 300 (shRNA) cells/well in 50 IJL of media, and allowed to attach overnight at 37° C. in a 5% CO2 atmosphere.
For shRNA screens, the media was exchanged the following day to complete media with 8 μg/mL polybrene using a JANUS workstation (PerkinElmer). Virus infection was carried out on an EP3 workstation (PerkinElmer) with 1.5 μL of hightiter retrovirus. […] Plates were centrifuged in a swinging-bucket rotor at 2250 rpm for 30 minutes following infection and returned to the incubator overnight. […]
Plates were allowed to equilibrate to room temperature for 30 minutes and imaged on a Cellomics ArrayScan VTI automated microscope with a 20× objective. […] Images were segmented and analyzed with CellProfiler cell image analysis software (Carpenter et al., Genome Biology, 2006, 7, R100). […]

Cc1sc2c(c1C)C(c1ccc(Cl)cc1)=NC(CC(=O)OC(C)(C)C)c1nnc(C)n1-2 (single isomer, unassigned; (+)) [(+)JQ1]
H2AX phosphorylation following IR (U20S cells [1]; compound at 250 nM, 10 Gy IR): enhanced H2AX phosphorylation following IR
γH2AX foci formation after irradiation (U20S cells [1]; inhibition with JQ1 or short term Brd4 knockdown): sufficient to increase γH2AX foci formation after irradiation
reversal of the ability of Brd4 isoform B to suppress γH2AX foci formation ([2]; cells overexpressing Brd4 isoform B, compound at 250 nM): reversed
CHEK2 mRNA (CHEK2 mRNA): no change in CHEK2 mRNA
inhibition of Brd4 bromodomain 1 versus bromodomain 2 (Brd4 bromodomain 1): more potent inhibition of Brd4 bromodomain 1 than bromodomain 2

CN[C@@H]1C[C@H]2O[C@@](C)([C@@H]1OC)n1c3ccccc3c3c4c(c5c6ccccc6n2c5c31)C(=O)N[C@@H]4O [UCN01]
G2/M arrest following irradiation / mitotic entry (U20S cells [3]): abrogated the normal G2/M arrest following irradiation, leading to premature mitotic entry

C[C@@H]1C[C@@H]([C@H](O)CC2CC(=O)NC(=O)C2)C(=O)[C@@H](C)C1 [cycloheximide]
sensitivity of suppression of DDR signaling by Brd4 isoform B overexpression to transcription or translation inhibition [2]: insensitive

a-amanitin
sensitivity of suppression of DDR signaling by Brd4 isoform B overexpression to transcription or translation inhibition [2]: insensitive
